Patent US9492376B2, “Polymer-conjugated albumin hydrogels for controlled release of therapeutic agents” (TECHNION RESEARCH AND DEVELOPMENT FOUNDATION LTD., priority 2008, dated 2016)

What was measured:
[1] = Drug release from hydrogels, with diffusion model fitting; type: physicochemical; settings: for Average drug release (last 30 min), normalized amount: released from purified mono-PEGylated albumin hydrogels (10 kDa PEG), insulins fluorescein-labelled, FIG. 5
Description: Both LEVEMIR® and […]® were fluorescently labelled by 5 mg/ml NHS-fluorescein (Pierce, Illinois, U.S.A.) in DMSO, with a molar ratio of 15:1 NHS-fluorescein to insulin. The solution was allowed to react for 5 hr in 4° C. and dialysed (Cellu-Sep H1, 1-kDaMW cutoff, Texas, U.S.A.) against PBS with 0.1% (w/v) of sodium azide with DMSO in decreasing concentrations of DMSO (10-0%) for 1 week.
The drug was saturated in disk-shaped hydrogel constructs prepared from PEG-DA or PEGylated proteins, that were formed into hydrogels by photopolymerization using 0.1% (w/v) Irgacure™ 2959 (Ciba Specialty Chemicals, Basel, Switzerland) and UV light (λ=365 nm, 4-5 mW/cm^2) exposure for 5 min as described elsewhere (Gonen-Wadmany et al., 2007). The hydrogel constructs were produced from six different hydrogel precursor solutions, including: (i) purified mono-PEGylated albumin in PEG-DA; (ii) non-purified mono-PEGylated albumin (containing wild-type and multi-PEGylated albumin) in PEG-DA; (iii) multi-PEGylated albumin in PEG-DA; (iv) wild-type albumin in PEG-DA; (v) PEG-DA; (vi) PEGylated fibrinogen in PEG-DA. In all cases, the protein (albumin or fibrinogen) concentration was 8.5 mg/ml, and the PEG-DA was added to reach a total PEG concentration of 7%.
Drug release from the hydrogel constructs into the supernatant was measured fluorescently (excitation at […]) in PBS with 0.1% (w/v) of sodium azide under constant agitation at 37° C. using a Varioscan plate-reader (Thermo Electron Corporation, Finland). (In the case of degradation experiments, 0.01 mg/ml of Trypsin (MP Biomedicals) was added to the PBS solution.) The raw data was normalized by the fluorescence intensity measured after 24 hours. The constructs were liquefied by homogenization or sonication (for multi-PEGylated albumin and fibrinogen), or by chemical means using 0.1 M NaOH, and the drug content was quantified to confirm complete drug release.
The drug release profiles were compared with a known model of diffusion-based release kinetics. […]

serum albumin = serum albumin (Homo sapiens, UniProt P02768); settings: cited from earlier work
[2] = Warfarin fluorescence and albumin binding; settings: for Fluorescence Intensity Ratio Comparing to Warfarin Alone: 5 mg/ml protein in PBS, 10:1 molar ratio albumin to Warfarin, ~5 hours incubation, excitation 320 nm, emission 385 nm, n = 6
Description: The mixture was incubated for ˜5 hours before reading fluorescence emission (λ=385 nm) at a 320 nm excitation wavelength using a Varioscan spectral scanning multimode reader (Thermo Electron Corporation, Vantaa, Finland).

[3] = Equilibrium dialysis of Warfarin with wild-type or PEGylated albumin; type: binding; settings: result in words; for affinity of Warfarin to the protein by equilibrium dialysis: equilibrium at about 24 hr, compared to wild-type albumin
Description: The two chambers of the device were separated by a dialysis membrane (12-14 kDa MW cutoff) and drug diffusion was measured by fluorescence spectroscopy. One dialysis chamber of the device was filled with 25 ml PBS solution containing 0.1% (w/v) of sodium azide (Fluka).

| Molecule | Fluorescence Intensity Ratio Comparing to Warfarin Alone [2] | Average drug release (last 30 min), normalized amount [1] | affinity of Warfarin to the protein by equilibrium dialysis [3] | other results |
| --- | --- | --- | --- | --- |
| COc1ccc2cc([C@H](C)C(=O)O)ccc2c1 [Naproxen] | – | 0.66±0.07 | – | release kinetics of drugs compared ([1]; from purified mono-PEGylated albumin hydrogels (10 kDa PEG), p-value<0.05): released significantly faster |
| ACTRAPID®: regular human insulin formulation, 100 IU/ml, Novo Nordisk; no binding affinity to serum albumin | – | 0.57±0.14 | – | binding affinity to serum albumin (serum albumin): no binding affinity |
| PEG-Alb 4 kDa: bovine serum albumin multi-PEGylated with linear 4 kDa PEG-DA, in solution | 1.5 ± 0.4 | – | significantly less affinity | – |
| PEG-Alb 10 kDa: bovine serum albumin multi-PEGylated with linear 10 kDa PEG-DA, in solution | 1.5 ± 0.5 | – | – | – |

Now from value to molecule, other results behind:

| Fluorescence Intensity Ratio Comparing to Warfarin Alone [2] | Molecule | Average drug release (last 30 min), normalized amount [1] | affinity of Warfarin to the protein by equilibrium dialysis [3] | other results |
| --- | --- | --- | --- | --- |
| 2.8 ± 0.2 | Albumin: bovine serum albumin (MP Biomedicals), non-PEGylated control in solution | – | – | increase in Warfarin fluorescence when bound to albumin ([2]; bovine albumin, versus unbound Warfarin): 2.8 fold; percent of drug (Warfarin) transported through the dialysis membrane at equilibrium ([3]; about 24 hr, albumin to Warfarin 5:1, room temperature): lowest |
| 1.6 ± 0.3 | PEG-Alb 1.5 kDa: bovine serum albumin multi-PEGylated with linear 1.5 kDa PEG-DA, in solution | – | significantly less affinity | – |
